Data taken from ChEMBL document CHEMBL1777784, “New antiplasmodial indole alkaloids from Hunteria zeylanica” (Bioorg Med Chem Lett, 2011).
pIC50: −log10 of the molar value.

Legend:
Plasmodium falciparum = test: Antiplasmodial activity against Plasmodium falciparum 3D7 by Geimsa staining method; format: functional, organism-based
HL-60 = test: Cytotoxicity against human HL60 cells; format: cell-based
[1] = Selectivity index, ratio of IC50 for Plasmodium falciparum 3D7 to IC50 for human HL60 cells; set-up: species or system HL-60

With `C/C=C1/CN(C)[C@H]2Cc3c([nH]c4ccccc34)[C@H](n3c4c(c5ccccc53)C[C@H]3[C@@H](C(=O)OC)[C@H](C[C@H]4O)/C(=C\C)CN3C)C[C@H]1[C@@H]2C(=O)OC` [BISNICALATERINE A] the pIC50 (Plasmodium falciparum; Plasmodium falciparum, 3D7) was 5.36, the pIC50 (HL-60) was 4.79 and the “Ratio IC50” value [1] was 3.7.
With `C/C=C1/C[N@@+]2(C)CCc3c([nH]c4ccc(O)c([C@@H]5C[C@@]6(CC)CCCN7CCc8c(n5c5ccccc85)[C@H]76)c34)[C@H]2C[C@@H]1CCO` (stereo in doubt; 5) [BISNICALATERINE B] the pIC50 (Plasmodium falciparum) was 7.30 and the “Ratio IC50” value [1] was over 1000.
In the case of `CCc1c[n+]2ccc3c4ccccc4[nH]c3c2cc1CCO` [NICALATERINE A], the pIC50 (Plasmodium falciparum; Plasmodium falciparum, 3D7) was 6.96, the pIC50 (HL-60) was under 4.30 and the “Ratio IC50” value [1] was over 450.
For `C/C=C1/C[N@@+]2(C)CCc3c([nH]c4ccc(O)c(C5=C[C@@]6(CC)CCCN7CCc8c(n5c5ccccc85)[C@H]76)c34)[C@H]2C[C@@H]1CCO` [BISNICALATERINE D], the pIC50 (Plasmodium falciparum; Plasmodium falciparum, 3D7) was under 4.30 and the pIC50 (HL-60) was under 4.30.
With `C/C=C1/C[N@@+]2(C)CCc3c([nH]c4ccc(O)c([C@@H]5C[C@@]6(CC)CCCN7CCc8c(n5c5ccccc85)[C@H]76)c34)[C@H]2C[C@@H]1CCO` (stereo in doubt; 4) [BISNICALATERINE B] the pIC50 (Plasmodium falciparum) was 5.95, the pIC50 (HL-60) was under 4.30 and the “Ratio IC50” value [1] was over 44.
